{
  "source": "patent US8377489B2",
  "about": "“Banana treatments” (Rohm and Haas Company, priority 2008, dated 2013)",
  "test_system": "Banana fruit",
  "test": "Ripening of bananas after 1-MCP dip of varied duration and ethylene exposure (Comparative Example 1)",
  "assay_type": "in vivo, Musa",
  "conditions": "20 microgram 1-MCP per liter with 0.6 ml/l NuFilm 17; for peel colour after 12 days: 12 days after exposure to ethylene",
  "source_text": "The following Examples, the color of banana peels is rated according to a seven stage rating scale, published by Chiquita Brands International, Inc. (http://www.chiquita.com/chiquita/Discover/cbripen.asp): stage 1 (dark green); stage 2 (all light green); stage 3 (more green than yellow); stage 4 (more yellow than green); stage 5 (green tips and necks); stage 6 (all yellow; maybe light green necks, no green tips); stage 7 (yellow flecked with brown). Consumers generally prefer to eat bananas in stage 5 or stage 6.\nBanana fruit with an age of 12 weeks, grown and treated in Costa Rica. The bananas were dipped (not sprayed). The solution of every 1-MCP treatment included 0.6 ml/l NuFilm 17® 96% (elastomer-forming additive, Miller Chemical and Fertilizer Co.). Control sample had no dip. Other samples were dipped in water solution in which powdered encapsulation complex of 1-MCP in alpha-cyclodextrin was added to water to give concentration of 20 microgram 1-MCP per liter. Bananas were dipped for zero time (in and out), 5 minutes, or 20 minutes.\nAfter 1-MCP treatment, fruit were allowed to dry on racks after treatments before being repacked in the boxes. The boxes were stored at 14° C. for 7 days. The boxes were conditioned at 20-21° C. for 6 hours before being treated with a continuous stream of 100 microliter per liter ethylene in a treatment chamber at 20° C. by 24 hours. After ethylene treatment the boxes were kept at ambient conditions (20° C. and 95% RH). Bananas were inspected at 5, 7, 10, and 12 days after exposure to ethylene.\nComplete randomized design was used, with 4 treatments and 2 boxes per treatment. Clusters from each treatment were evaluated every two days after ethylene treatment.",
  "data": [
    {"smiles": "CC1=CC1", "note": "[Treatment 1-MCP, 1-methylcyclopropene]", "values": [
      {"measurement": "ripening", "setting": "dipped for 5 minutes", "result": "did not ripen normally"},
      {"measurement": "peel colour after 12 days", "setting": "dipped for 5 minutes", "result": "remained green"},
      {"measurement": "ripening", "setting": "dipped for 20 minutes", "result": "did not ripen normally"},
      {"measurement": "peel colour after 12 days", "setting": "dipped for 20 minutes", "result": "remained green"},
      {"measurement": "difference in ripening versus control bananas", "setting": "dipped in and out quickly (zero time)", "result": "No significant difference"}
    ]}
  ]
}
